Experimental data published in ChEMBL document CHEMBL2176906, “Diterpenoids isolated from Sideritis species protect astrocytes against oxidative stress via Nrf2” (J Nat Prod, 2012).
The source made the active and inactive calls. The rule behind the calls is not given here.

Target: T1, Nuclear factor erythroid 2-related factor 2 (Homo sapiens) (UniProt Q16236)
T1 sequence (whole entry): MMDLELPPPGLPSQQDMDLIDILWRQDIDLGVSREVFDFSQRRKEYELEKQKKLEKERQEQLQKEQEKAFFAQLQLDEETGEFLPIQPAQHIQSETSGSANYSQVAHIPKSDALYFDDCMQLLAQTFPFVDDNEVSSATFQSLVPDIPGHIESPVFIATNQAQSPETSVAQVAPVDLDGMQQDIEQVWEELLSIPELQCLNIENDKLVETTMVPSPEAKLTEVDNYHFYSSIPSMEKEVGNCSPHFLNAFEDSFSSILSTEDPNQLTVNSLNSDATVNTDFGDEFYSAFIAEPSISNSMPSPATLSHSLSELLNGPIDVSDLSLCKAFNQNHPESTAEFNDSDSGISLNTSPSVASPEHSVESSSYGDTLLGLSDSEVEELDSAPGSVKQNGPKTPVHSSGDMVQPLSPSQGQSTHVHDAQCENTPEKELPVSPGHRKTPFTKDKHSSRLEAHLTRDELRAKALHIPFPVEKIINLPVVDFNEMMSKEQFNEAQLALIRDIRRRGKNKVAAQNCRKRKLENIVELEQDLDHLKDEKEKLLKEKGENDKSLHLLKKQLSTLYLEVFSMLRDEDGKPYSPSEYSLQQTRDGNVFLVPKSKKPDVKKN
Assay: Induction of Nrf2-mediated CAT protein expression in H2O2-stimulated human U373MG cells preincubated at 5 uM for 24 hrs before H2O2 challenge by Western blot method
Format: cell-based
Details: U-373MG ATCC

Activity | SMILES
Active | CC1(C)CCC[C@H]2C1=CC[C@H]1C[C@@](C)([C@@H](O)CO)C[C@@H](O)[C@@]12C [LAGASCATRIOL]

Target: T1, Nuclear factor erythroid 2-related factor 2 (Homo sapiens)
Assay: Induction of Nrf2-mediated GPx protein expression in H2O2-stimulated human U373MG cells preincubated at 10 uM for 24 hrs before H2O2 challenge by Western blot method
Format: cell-based
Details: U-373MG ATCC

Activity | SMILES
Active | CC1(C)CCC[C@H]2C1=CC[C@H]1C[C@@](C)([C@@H](O)CO)C[C@@H](O)[C@@]12C [LAGASCATRIOL]

Target: T1, Nuclear factor erythroid 2-related factor 2 (Homo sapiens)
Assay: Induction of Nrf2-mediated GPx protein expression in H2O2-stimulated human U373MG cells preincubated at 5 uM for 24 hrs before H2O2 challenge by Western blot method
Format: cell-based
Details: U-373MG ATCC

Activity | SMILES
Active | CC1(C)CCC[C@H]2C1=CC[C@H]1C[C@@](C)([C@@H](O)CO)C[C@@H](O)[C@@]12C [LAGASCATRIOL]

Target: T1, Nuclear factor erythroid 2-related factor 2 (Homo sapiens)
Assay: Induction of Nrf2-mediated SOD protein expression in H2O2-stimulated human U373MG cells preincubated at 10 uM for 24 hrs before H2O2 challenge by Western blot method
Format: cell-based
Details: U-373MG ATCC

Activity | SMILES
Active | CC1(C)CCC[C@H]2C1=CC[C@H]1C[C@@](C)([C@@H](O)CO)C[C@@H](O)[C@@]12C [LAGASCATRIOL]

Target: T1, Nuclear factor erythroid 2-related factor 2 (Homo sapiens)
Assay: Induction of Nrf2-mediated SOD protein expression in H2O2-stimulated human U373MG cells preincubated at 5 uM for 24 hrs before H2O2 challenge by Western blot method
Format: cell-based
Details: U-373MG ATCC

Activity | SMILES
Active | CC1(C)CCC[C@H]2C1=CC[C@H]1C[C@@](C)([C@@H](O)CO)C[C@@H](O)[C@@]12C [LAGASCATRIOL]

Test system: U373 MG
Assay: Induction of Nrf2 nuclear protein expression in H2O2-stimulated human U373MG cells preincubated at 5 uM for 24 hrs before H2O2 challenge by Western blot method
Format: functional, cell-based
Details: U-373MG ATCC

SMILES | Activity
CC1(C)CCC[C@H]2C1=CC[C@H]1C[C@@](C)([C@@H](O)CO)C[C@@H](O)[C@@]12C [LAGASCATRIOL] | Active

Test system: U373 MG
Assay: Induction of HO-1 activity in human U373MG cells assessed as bilirubin production per mg protein preincubated at 10 uM for 24 hrs before H2O2 challenge by fluorimetric method (reference value: 19.6 +/-3.5 pmol/hr/mg protein)
Format: functional, U-373MG ATCC
Details: not given

SMILES | Activity [pmol/h]
CC1(C)CCC[C@H]2C1=CC[C@H]1C[C@@](C)([C@@H](O)CO)C[C@@H](O)[C@@]12C [LAGASCATRIOL] | 32.6

Test system: U373 MG
Assay: Induction of HO-1 activity in human U373MG cells assessed as bilirubin production per mg protein preincubated at 5 uM for 24 hrs before H2O2 challenge by fluorimetric method (reference value: 19.6 +/-3.5 pmol/hr/mg protein)
Format: functional, U-373MG ATCC
Details: not given

SMILES | Activity [pmol/h]
CC1(C)CCC[C@H]2C1=CC[C@H]1C[C@@](C)([C@@H](O)CO)C[C@@H](O)[C@@]12C [LAGASCATRIOL] | 28.6

Test system: U373 MG
Assay: Induction of total GPx activity in human U373MG cells assessed as […] per mg protein preincubated at 10 uM for 24 hrs before H2O2 challenge by fluorimetric method (reference value: 58.5 +/- 5.1 nmol/min/mg protein)
Format: functional, U-373MG ATCC
Details: not given

SMILES | Activity [nmol/min]
CC1(C)CCC[C@H]2C1=CC[C@H]1C[C@@](C)([C@@H](O)CO)C[C@@H](O)[C@@]12C [LAGASCATRIOL] | 85.2

Test system: U373 MG
Assay: Induction of total GPx activity in human U373MG cells assessed as […] per mg protein preincubated at 5 uM for 24 hrs before H2O2 challenge by fluorimetric method (reference value: 58.5 +/- 5.1 nmol/min/mg protein)
Format: functional, U-373MG ATCC
Details: not given

SMILES | Activity [nmol/min]
CC1(C)CCC[C@H]2C1=CC[C@H]1C[C@@](C)([C@@H](O)CO)C[C@@H](O)[C@@]12C [LAGASCATRIOL] | 76.9

Test system: U373 MG
Assay: Induction of selenium-dependent GPx activity in human U373MG cells assessed as […] per mg protein preincubated at 10 uM for 24 hrs before H2O2 challenge by fluorimetric method (reference value: 14.7 +/- 2.9 nmol/min/mg protein)
Format: functional, U-373MG ATCC
Details: not given

SMILES | Activity [nmol/min]
CC1(C)CCC[C@H]2C1=CC[C@H]1C[C@@](C)([C@@H](O)CO)C[C@@H](O)[C@@]12C [LAGASCATRIOL] | 27.1

Test system: U373 MG
Assay: Induction of selenium-dependent GPx activity in human U373MG cells assessed as […] per mg protein preincubated at 5 uM for 24 hrs before H2O2 challenge by fluorimetric method (reference value: 14.7 +/- 2.9 nmol/min/mg protein)
Format: functional, U-373MG ATCC
Details: not given

SMILES | Activity [nmol/min]
CC1(C)CCC[C@H]2C1=CC[C@H]1C[C@@](C)([C@@H](O)CO)C[C@@H](O)[C@@]12C [LAGASCATRIOL] | 22.8

Test system: U373 MG
Assay: Induction of Glutathione reductase activity in human U373MG cells assessed as […] per mg protein preincubated at 5 uM for 24 hrs before H2O2 challenge by fluorimetric method (reference value: 9.3 +/- 2.2 nmol/min/mg protein)
Format: functional, U-373MG ATCC
Details: not given

SMILES | Activity [nmol/min]
CC1(C)CCC[C@H]2C1=CC[C@H]1C[C@@](C)([C@@H](O)CO)C[C@@H](O)[C@@]12C [LAGASCATRIOL] | 15.8

Test system: U373 MG
Assay: Induction of SOD activity in human U373MG cells assessed per mg protein preincubated at 10 uM for 24 hrs before H2O2 challenge by fluorimetric method (reference value: 14.2 +/- 3 UI/mg protein)
Format: functional, U-373MG ATCC
Details: not given

SMILES | Activity [IU]
CC1(C)CCC[C@H]2C1=CC[C@H]1C[C@@](C)([C@@H](O)CO)C[C@@H](O)[C@@]12C [LAGASCATRIOL] | 23.9

Test system: U373 MG
Assay: Induction of SOD activity in human U373MG cells assessed per mg protein preincubated at 5 uM for 24 hrs before H2O2 challenge by fluorimetric method (reference value: 14.2 +/- 3 UI/mg protein)
Format: functional, U-373MG ATCC
Details: not given

SMILES | Activity [IU]
CC1(C)CCC[C@H]2C1=CC[C@H]1C[C@@](C)([C@@H](O)CO)C[C@@H](O)[C@@]12C [LAGASCATRIOL] | 22.8

Test system: U373 MG
Assay: Induction of CAT activity in human U373MG cells assessed per mg protein preincubated at 5 uM for 24 hrs before H2O2 challenge by fluorimetric method (reference value: 18.9 +/- 0.4 UI/mg protein)
Format: functional, U-373MG ATCC
Details: not given

SMILES | Activity [IU]
CC1(C)CCC[C@H]2C1=CC[C@H]1C[C@@](C)([C@@H](O)CO)C[C@@H](O)[C@@]12C [LAGASCATRIOL] | 24.2

Test system: U373 MG
Assay: Inhibition of AAPH-induced oxidative stress in human U373MG cells assessed as peroxy radical scavenging activity at 10 uM by ORAC assay
Format: functional, cell-based
Details: U-373MG ATCC

SMILES | Activity
CC1(C)CCC[C@H]2C1=CC[C@H]1C[C@@](C)([C@@H](O)CO)C[C@@H](O)[C@@]12C [LAGASCATRIOL] | inactive

Test system: U373 MG
Assay: Inhibition of AAPH-induced oxidative stress in human U373MG cells assessed as peroxy radical scavenging activity at 5 uM by ORAC assay
Format: functional, cell-based
Details: U-373MG ATCC

SMILES | Activity
CC1(C)CCC[C@H]2C1=CC[C@H]1C[C@@](C)([C@@H](O)CO)C[C@@H](O)[C@@]12C [LAGASCATRIOL] | inactive

Test system: U373 MG
Assay: Inhibition of H2O2-induced oxidative stress in human U373MG cells assessed as GSH/GSSG ratio at 5 uM (reference value: 1.8 +/- 0.1 )
Format: functional, U-373MG ATCC
Details: not given

SMILES | Ratio
CC1(C)CCC[C@H]2C1=CC[C@H]1C[C@@](C)([C@@H](O)CO)C[C@@H](O)[C@@]12C [LAGASCATRIOL] | 3.8

Test system: U373 MG
Assay: Inhibition of H2O2-induced oxidative stress in human U373MG cells assessed as GSH/GSSG ratio at 10 uM (reference value: 1.8 +/- 0.1 )
Format: functional, U-373MG ATCC
Details: not given

SMILES | Ratio
CC1(C)CCC[C@H]2C1=CC[C@H]1C[C@@](C)([C@@H](O)CO)C[C@@H](O)[C@@]12C [LAGASCATRIOL] | 4.2

Test system: U373 MG
Assay: Inhibition of H2O2-induced oxidative stress in human U373MG cells assessed as GSSG level per mg protein at 5 uM by fluorimetric method (reference value: 9.2 +/- 0.9 nmol/mg protein)
Format: functional, U-373MG ATCC
Details: not given

SMILES | Activity [nmol]
CC1(C)CCC[C@H]2C1=CC[C@H]1C[C@@](C)([C@@H](O)CO)C[C@@H](O)[C@@]12C [LAGASCATRIOL] | 7.1

Test system: U373 MG
Assay: Inhibition of H2O2-induced oxidative stress in human U373MG cells assessed as GSH level per mg protein at 5 uM by fluorimetric method (reference value: 17.1 +/- 1.7 nmol/mg protein)
Format: functional, U-373MG ATCC
Details: not given

SMILES | Activity [nmol]
CC1(C)CCC[C@H]2C1=CC[C@H]1C[C@@](C)([C@@H](O)CO)C[C@@H](O)[C@@]12C [LAGASCATRIOL] | 27.6

Test system: U373 MG
Assay: Induction of ROS production in human U373MG cells at 10 uM after 24 hrs by DCFH-DA assay
Format: functional, cell-based
Details: U-373MG ATCC

SMILES | Activity
CC1(C)CCC[C@H]2C1=CC[C@H]1C[C@@](C)([C@@H](O)CO)C[C@@H](O)[C@@]12C [LAGASCATRIOL] | inactive

Test system: U373 MG
Assay: Induction of ROS production in human U373MG cells at 5 uM after 24 hrs by DCFH-DA assay
Format: functional, cell-based
Details: U-373MG ATCC

SMILES | Activity
CC1(C)CCC[C@H]2C1=CC[C@H]1C[C@@](C)([C@@H](O)CO)C[C@@H](O)[C@@]12C [LAGASCATRIOL] | inactive

Test system: U-373MG ATCC
Assay: Antioxidant activity in human U373MG cells assessed as reduction in H2O2-induced morphological changes preincubated at 5 uM for 24 hrs before H2O2 challenge by phase-contrast microscopy
Format: functional, cell-based
Details: not given

SMILES | Activity
CC1(C)CCC[C@H]2C1=CC[C@H]1C[C@@](C)([C@@H](O)CO)C[C@@H](O)[C@@]12C [LAGASCATRIOL] | Active

Test system: not listed separately
Assay: Cytotoxicity against human U373MG cells assessed as LDH release at 1 to 10 uM after 24 hrs by LDH assay
Format: cell-based
Details: u-373mg atcc

SMILES | Activity [%]
CC1(C)CCC[C@H]2C1=CC[C@H]1C[C@@](C)([C@@H](O)CO)C[C@@H](O)[C@@]12C [LAGASCATRIOL] | < 10
